Measurements reported in publication PMC6013247, “Preclinical characterization of INCB053914, a novel pan-PIM kinase inhibitor, alone and in combination with anticancer agents, in models of hematologic malignancies” (PLoS ONE, 2018).

Experiments:
PLK3 = PLK3 (Homo sapiens, UniProt Q9H4B4); experiment: Kinase selectivity panel; type: biochemical; conditions: [ATP] = 1 mM
PIM3 = PIM3 (Homo sapiens, UniProt Q86V86); experiment: PIM3 AlphaScreen kinase assay; type: biochemical; conditions: 1 mM ATP; read-out: Mean (SD) IC50
Protocol: AlphaScreen assay. Reactions (20 μl) were carried out in white 384-well polystyrene plates (Greiner Bio-One, Kremsmünster, Austria) dotted with 0.8 μl of the compound in dimethylsulfoxide in the assay buffer (50 mM Tris, pH 7.5, 0.01% Tween-20, 5 mM MgCl2, 0.01% bovine serum albumin [BSA], 5 mM dithiothreitol) containing 0.05 μM Biotin-labeled Bcl-2–associated death promoter protein peptide substrate (AnaSpec, Fremont, California), 1 mM ATP, and 2.5 pM PIM1 (Invitrogen, Thermo Fisher Scientific, Waltham, Massachusetts), or 1.25 pM PIM3 (Millipore, Billerica, Massachusetts) enzyme. After 1 hour at 25°C, the reactions were stopped with 10 μl STOP Buffer (150 mM Tris, pH 7.5, 150 mM NaCl, 75 mM ethylenediaminetetraacetic acid [EDTA], 0.01% Tween-20, 0.3% BSA) supplemented with Phospho-Bad (Ser112) antibody (Cell Signaling Technology, Danvers, Massachusetts) diluted 666-fold, and Streptavidin donor beads (PerkinElmer, Waltham, Massachusetts), along with Protein-A acceptor beads (PerkinElmer, Akron, Ohio), at 15 μg/ml each. Supplementation of STOP buffer with beads and stopping the reactions were carried out under reduced light. […] After the reactions were stopped, the plates were incubated for 1 hour in the dark at room temperature and then read on a PHERAstar FS plate reader (BMG Labtech, Cary, North Carolina) under reduced light.

MAPKAPK2 = MAPKAPK2 (Homo sapiens, UniProt P49137); experiment: Kinase selectivity panel; type: biochemical; conditions: [ATP] = 1 mM
TIE2 = TIE2 (Homo sapiens, UniProt Q02763); experiment: Kinase selectivity panel; type: biochemical; conditions: [ATP] = 1 mM
FGFR3 = FGFR3 (Homo sapiens, UniProt P22607); experiment: Kinase selectivity panel; type: biochemical; conditions: [ATP] = 1 mM
ERBB4 = ERBB4 (Homo sapiens, UniProt Q15303); experiment: Kinase selectivity panel; type: biochemical; conditions: [ATP] = 1 mM
KIT = KIT (Homo sapiens, UniProt P10721); experiment: Kinase selectivity panel; type: biochemical; conditions: [ATP] = 1 mM
CAMK2D = CAMK2D (Homo sapiens, UniProt Q13557); experiment: Kinase selectivity panel; type: biochemical; conditions: [ATP] = 1 mM
RSK2 = RSK2 (Homo sapiens, UniProt P51812); experiment: Kinase selectivity panel; type: biochemical
BRAF = BRAF (Homo sapiens, UniProt P15056); experiment: Kinase selectivity panel; type: biochemical; conditions: [ATP] = 1 mM
HIPK3 = HIPK3 (Homo sapiens, UniProt Q9H422); experiment: Kinase selectivity panel; type: biochemical; conditions: [ATP] = 1 mM
[1] = system: BAD phosphorylation in MOLM-16 tumors; experiment: Intratumoral pBAD inhibition in xenograft-bearing mice; type: in vivo; conditions: Mus musculus, MOLM16, single oral dose, 4 hours post dose, read-out: IC50, inhibition of BAD phosphorylation relative to vehicle in tumors
Protocol: (§1) Human MOLM-16 (AML) and KMS-12-BM (MM) xenografts were established in SCID mice. For the evaluation of intratumoral pBAD inhibition, tumor-bearing mice (three to eight mice/group) were treated with a single oral dose of INCB053914 at doses ranging from 0 (vehicle) to 100 mg/kg. In one representative experiment, mice were sacrificed 4 hours after a single dose, and tumors were collected to analyze the levels of pBAD relative to those of vehicle-administered controls. Plasma samples were collected for pharmacokinetic analysis.

[2] = system: BAD phosphorylation in KMS-12-BM tumors; experiment: as above; type: in vivo; conditions: Mus musculus, single oral dose, 4 hours post dose, read-out: IC50, inhibition of BAD phosphorylation relative to vehicle in tumors
Protocol: as §1

PIM2 expression in PBMCs = PIM2 expression in PBMCs from whole blood of patients with AML treated ex vivo; type: cell-based; conditions: Homo sapiens, PBMC, read-out: EC50 for increased PIM2 expression, whole blood treated overnight ex vivo
Protocol: The effects of INCB053914 on pBAD, pp70S6K, and p4E-BP1 levels and on the expression of PIM isozymes also were assessed ex vivo in primary bone marrow blasts (Stem Cell and Xenograft Core, University of Pennsylvania, Philadelphia, Pennsylvania) or in peripheral blood mononuclear cells (PBMCs) derived from whole blood samples obtained with informed written consent from adult patients with AML enrolled in an ongoing phase 1/2 dose-escalation trial, which was conducted in accordance with the study protocol approved by the respective institutional review boards or independent ethics committees. Only samples initially containing >90% viable cells were used (assessed by Trypan Blue staining). Immediately after thawing, the blasts were cultured in RPMI + 10% FBS with INCB053914 for 2 hours at 37°C, before lysis. For determinations of PIM2 expression in PBMCs, whole blood samples were treated overnight with increasing concentrations of INCB053914; total PBMCs were isolated by Ficoll-Paque density gradient centrifugation before lysis. The levels of PIM isozymes and phosphoproteins in cell lysates were detected by Western blotting using the same primary antibodies as above.

CHEK2 = CHEK2 (Homo sapiens, UniProt O96017); experiment: Kinase selectivity panel; type: biochemical; conditions: [ATP] = 1 mM
CHEK1 = CHEK1 (Homo sapiens, UniProt O14757); experiment: Kinase selectivity panel; type: biochemical; conditions: [ATP] = 1 mM
IKKB = IKKB (Homo sapiens, UniProt O14920); experiment: Kinase selectivity panel; type: biochemical; conditions: [ATP] = 1 mM
EGFR = EGFR (Homo sapiens, UniProt P00533); experiment: Kinase selectivity panel; type: biochemical; conditions: [ATP] = 1 mM
NLK = NLK (Homo sapiens, UniProt Q9UBE8); experiment: Kinase selectivity panel; type: biochemical; conditions: [ATP] = 1 mM
RPS6KB1 = RPS6KB1 (Homo sapiens, UniProt P23443); experiment: Kinase selectivity panel; type: biochemical; conditions: [ATP] = 1 mM
PRKAA1 = PRKAA1 (Homo sapiens, UniProt Q13131); experiment: Kinase selectivity panel; type: biochemical; conditions: [ATP] = 1 mM
RET = RET (Homo sapiens, UniProt P07949); experiment: Kinase selectivity panel; type: biochemical; conditions: [ATP] = 1 mM
[3] = system: panel of more than 50 kinases; conditions: except for RSK2
Protocol: S1 Table. Selectivity of INCB053914 for PIM kinases compared with 56 kinases representative of the kinome [ATP] = 1 mM.

JNK1 = JNK1 (Homo sapiens, UniProt P45983); experiment: Kinase selectivity panel; type: biochemical; conditions: [ATP] = 1 mM

Chain of RSK2 (P51812 whole entry): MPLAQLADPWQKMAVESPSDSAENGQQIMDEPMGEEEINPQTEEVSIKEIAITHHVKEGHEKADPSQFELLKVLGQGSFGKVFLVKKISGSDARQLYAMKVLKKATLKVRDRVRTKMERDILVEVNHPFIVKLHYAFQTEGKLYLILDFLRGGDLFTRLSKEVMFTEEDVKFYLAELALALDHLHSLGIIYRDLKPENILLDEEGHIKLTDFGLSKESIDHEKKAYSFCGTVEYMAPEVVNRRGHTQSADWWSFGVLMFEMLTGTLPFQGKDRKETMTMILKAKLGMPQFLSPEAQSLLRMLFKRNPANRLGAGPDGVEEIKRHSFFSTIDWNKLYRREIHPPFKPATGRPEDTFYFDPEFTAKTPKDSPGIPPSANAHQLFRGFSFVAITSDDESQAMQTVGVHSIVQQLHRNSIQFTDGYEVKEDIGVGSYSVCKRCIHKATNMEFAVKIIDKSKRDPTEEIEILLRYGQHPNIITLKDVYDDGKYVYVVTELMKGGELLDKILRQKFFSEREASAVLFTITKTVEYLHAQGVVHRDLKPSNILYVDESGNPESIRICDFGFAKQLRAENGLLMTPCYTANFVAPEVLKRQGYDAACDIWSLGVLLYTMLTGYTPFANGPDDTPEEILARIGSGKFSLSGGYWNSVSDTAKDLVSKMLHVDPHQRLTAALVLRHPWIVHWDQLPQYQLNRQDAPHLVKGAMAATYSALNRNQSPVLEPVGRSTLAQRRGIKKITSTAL
Chain of RET (P07949 29-1114): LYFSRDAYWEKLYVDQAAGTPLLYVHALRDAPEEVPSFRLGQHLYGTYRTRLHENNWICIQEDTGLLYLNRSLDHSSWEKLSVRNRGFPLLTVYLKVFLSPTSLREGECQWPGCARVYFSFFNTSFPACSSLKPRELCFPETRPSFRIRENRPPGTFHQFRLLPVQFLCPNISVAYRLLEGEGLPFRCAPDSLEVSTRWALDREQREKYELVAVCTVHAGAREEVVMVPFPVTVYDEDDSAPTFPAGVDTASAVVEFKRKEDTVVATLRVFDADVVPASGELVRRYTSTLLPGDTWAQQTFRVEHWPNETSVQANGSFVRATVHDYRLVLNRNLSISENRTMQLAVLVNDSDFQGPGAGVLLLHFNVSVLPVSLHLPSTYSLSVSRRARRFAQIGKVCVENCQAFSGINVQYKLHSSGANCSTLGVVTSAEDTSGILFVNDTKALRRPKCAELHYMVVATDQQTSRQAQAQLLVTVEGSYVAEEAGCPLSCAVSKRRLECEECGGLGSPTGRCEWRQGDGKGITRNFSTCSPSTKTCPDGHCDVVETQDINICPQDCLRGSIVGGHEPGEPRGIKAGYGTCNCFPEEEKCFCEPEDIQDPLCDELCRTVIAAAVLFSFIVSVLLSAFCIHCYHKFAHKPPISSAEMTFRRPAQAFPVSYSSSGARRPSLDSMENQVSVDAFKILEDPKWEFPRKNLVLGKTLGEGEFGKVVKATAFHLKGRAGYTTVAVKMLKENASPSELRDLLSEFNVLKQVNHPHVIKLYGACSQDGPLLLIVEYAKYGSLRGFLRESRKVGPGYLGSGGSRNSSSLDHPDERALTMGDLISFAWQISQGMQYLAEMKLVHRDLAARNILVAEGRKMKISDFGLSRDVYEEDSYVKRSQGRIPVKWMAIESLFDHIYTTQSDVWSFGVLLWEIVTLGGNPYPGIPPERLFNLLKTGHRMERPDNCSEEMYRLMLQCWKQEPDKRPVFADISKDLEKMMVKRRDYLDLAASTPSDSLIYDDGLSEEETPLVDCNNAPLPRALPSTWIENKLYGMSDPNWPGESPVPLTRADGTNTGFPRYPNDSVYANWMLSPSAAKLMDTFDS
Chain of HIPK3 (Q9H422 whole entry): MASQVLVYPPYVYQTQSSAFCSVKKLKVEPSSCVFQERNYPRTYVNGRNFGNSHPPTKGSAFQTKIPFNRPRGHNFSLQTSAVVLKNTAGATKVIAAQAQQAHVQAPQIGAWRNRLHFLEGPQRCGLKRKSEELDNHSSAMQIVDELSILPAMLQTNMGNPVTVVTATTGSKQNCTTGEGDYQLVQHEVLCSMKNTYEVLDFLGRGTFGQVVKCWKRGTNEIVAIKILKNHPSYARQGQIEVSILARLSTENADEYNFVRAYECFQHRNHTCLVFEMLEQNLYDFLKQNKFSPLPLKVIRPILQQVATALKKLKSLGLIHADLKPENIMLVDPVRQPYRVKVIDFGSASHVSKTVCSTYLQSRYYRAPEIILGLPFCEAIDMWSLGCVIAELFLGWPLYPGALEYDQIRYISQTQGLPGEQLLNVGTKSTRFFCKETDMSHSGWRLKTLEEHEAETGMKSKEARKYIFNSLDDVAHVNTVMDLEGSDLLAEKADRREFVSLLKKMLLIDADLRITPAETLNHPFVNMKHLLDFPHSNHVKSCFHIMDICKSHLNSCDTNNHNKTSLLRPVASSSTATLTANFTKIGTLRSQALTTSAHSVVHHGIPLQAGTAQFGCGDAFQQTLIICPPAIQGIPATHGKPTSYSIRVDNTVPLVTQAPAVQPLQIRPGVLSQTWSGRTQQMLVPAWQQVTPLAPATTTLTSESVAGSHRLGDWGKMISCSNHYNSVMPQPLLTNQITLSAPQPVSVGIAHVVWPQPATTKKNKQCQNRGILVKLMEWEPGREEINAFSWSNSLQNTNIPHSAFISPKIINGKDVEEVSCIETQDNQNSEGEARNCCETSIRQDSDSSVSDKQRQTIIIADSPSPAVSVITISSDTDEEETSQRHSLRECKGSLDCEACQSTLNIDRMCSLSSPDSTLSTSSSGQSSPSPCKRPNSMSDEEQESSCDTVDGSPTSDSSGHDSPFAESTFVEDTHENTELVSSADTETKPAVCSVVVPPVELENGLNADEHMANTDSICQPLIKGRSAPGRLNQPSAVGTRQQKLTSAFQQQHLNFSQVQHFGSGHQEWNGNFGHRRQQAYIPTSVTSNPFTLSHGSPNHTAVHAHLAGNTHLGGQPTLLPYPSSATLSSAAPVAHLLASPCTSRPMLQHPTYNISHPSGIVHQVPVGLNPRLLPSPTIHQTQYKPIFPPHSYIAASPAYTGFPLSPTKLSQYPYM
Chain of NLK (Q9UBE8 whole entry): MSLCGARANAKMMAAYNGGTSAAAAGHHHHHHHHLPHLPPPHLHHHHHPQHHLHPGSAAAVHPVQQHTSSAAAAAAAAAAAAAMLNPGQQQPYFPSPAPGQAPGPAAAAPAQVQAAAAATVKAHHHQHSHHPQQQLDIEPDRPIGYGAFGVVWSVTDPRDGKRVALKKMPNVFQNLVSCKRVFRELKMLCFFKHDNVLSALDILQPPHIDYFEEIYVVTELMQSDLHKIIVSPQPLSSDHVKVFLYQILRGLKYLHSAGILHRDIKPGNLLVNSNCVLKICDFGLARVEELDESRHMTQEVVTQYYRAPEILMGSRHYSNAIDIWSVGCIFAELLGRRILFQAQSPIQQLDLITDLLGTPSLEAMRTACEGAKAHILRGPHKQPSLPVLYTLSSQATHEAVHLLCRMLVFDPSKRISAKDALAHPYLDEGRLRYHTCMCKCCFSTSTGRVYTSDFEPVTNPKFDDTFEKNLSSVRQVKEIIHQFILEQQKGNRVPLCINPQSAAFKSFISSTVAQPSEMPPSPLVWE
Chain of TIE2 (Q02763 23-1124, species assumed): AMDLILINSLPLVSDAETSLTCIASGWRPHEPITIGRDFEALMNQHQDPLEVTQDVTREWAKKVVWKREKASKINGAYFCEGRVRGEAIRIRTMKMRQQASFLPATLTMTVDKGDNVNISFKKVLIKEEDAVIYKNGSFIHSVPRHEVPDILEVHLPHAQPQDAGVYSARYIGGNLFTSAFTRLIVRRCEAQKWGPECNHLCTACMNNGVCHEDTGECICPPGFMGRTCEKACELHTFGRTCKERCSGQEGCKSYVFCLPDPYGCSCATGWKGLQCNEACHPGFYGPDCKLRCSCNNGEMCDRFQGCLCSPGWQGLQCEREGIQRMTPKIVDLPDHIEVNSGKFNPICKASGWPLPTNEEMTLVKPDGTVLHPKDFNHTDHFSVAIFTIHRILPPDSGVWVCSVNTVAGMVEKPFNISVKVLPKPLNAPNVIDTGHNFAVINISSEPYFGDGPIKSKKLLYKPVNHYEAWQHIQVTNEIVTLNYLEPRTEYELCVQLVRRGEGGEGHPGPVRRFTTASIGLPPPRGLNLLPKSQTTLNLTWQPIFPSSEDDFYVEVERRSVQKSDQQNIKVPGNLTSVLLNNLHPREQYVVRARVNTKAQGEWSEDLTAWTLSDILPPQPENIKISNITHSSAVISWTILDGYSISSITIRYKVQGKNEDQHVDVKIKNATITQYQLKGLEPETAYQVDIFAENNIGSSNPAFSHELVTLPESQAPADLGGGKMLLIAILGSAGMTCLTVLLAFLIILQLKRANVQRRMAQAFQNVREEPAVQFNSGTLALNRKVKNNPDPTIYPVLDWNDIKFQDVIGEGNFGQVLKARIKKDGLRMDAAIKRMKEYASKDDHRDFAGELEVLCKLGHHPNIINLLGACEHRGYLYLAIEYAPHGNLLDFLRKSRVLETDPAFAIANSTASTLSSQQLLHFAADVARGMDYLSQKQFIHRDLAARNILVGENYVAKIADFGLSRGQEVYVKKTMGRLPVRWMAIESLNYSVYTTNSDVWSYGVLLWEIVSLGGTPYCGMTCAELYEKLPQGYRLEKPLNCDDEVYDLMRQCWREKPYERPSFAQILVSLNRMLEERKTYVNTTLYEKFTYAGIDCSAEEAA
Chain of MAPKAPK2 (P49137 whole entry): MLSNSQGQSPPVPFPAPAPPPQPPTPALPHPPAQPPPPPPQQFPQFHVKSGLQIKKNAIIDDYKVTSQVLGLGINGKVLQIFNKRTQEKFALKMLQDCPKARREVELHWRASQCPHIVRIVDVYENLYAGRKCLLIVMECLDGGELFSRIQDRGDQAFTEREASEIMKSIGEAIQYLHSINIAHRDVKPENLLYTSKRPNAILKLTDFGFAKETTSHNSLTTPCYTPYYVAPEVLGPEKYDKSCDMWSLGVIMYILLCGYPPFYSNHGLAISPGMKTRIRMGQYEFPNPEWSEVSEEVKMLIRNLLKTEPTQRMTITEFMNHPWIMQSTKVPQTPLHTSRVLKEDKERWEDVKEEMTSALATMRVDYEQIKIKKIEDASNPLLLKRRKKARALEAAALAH

C[C@H]1CN(c2c(NC(=O)c3ccc(F)c(-c4c(F)cccc4F)n3)cnc3c2CC[C@H]3O)C[C@@H](N)[C@@H]1O.O=P(O)(O)O [INCB053914, N-((R)-4-((3R,4R,5S)-3-amino-4-hydroxy-5-methylpiperidin-1-yl)-7-hydroxy-6,7-dihydro-5H-cyclopenta[b]pyridin-3-yl)-6-(2,6-difluorophenyl)-5-fluoropicolinamide phosphate] gave an IC50 (PLK3) of over 20 µM, an IC50 (PIM3) of 0.12 nM and an IC50 (MAPKAPK2) of over 20 µM. For the same molecule, the IC50 (TIE2) was over 20 µM, the IC50 (FGFR3) was over 20 µM and the IC50 (ERBB4) was over 20 µM. The IC50 (KIT) was over 20 µM, the IC50 (CAMK2D) was over 20 µM and the IC50 (RSK2; [ATP] = 1 mM) was 7.12 µM. For the same molecule, the IC50 (RSK2; as given in the text) was 7.1 µM, the IC50 (BRAF) was over 20 µM and the IC50 (HIPK3) was over 20 µM. It also gave an IC50 [1] of 70 nM, an IC50 [2] of 145 nM and an EC50 (PIM2 expression in PBMCs) of 116 nM. It also gave an IC50 (CHEK2) of over 20 µM, an IC50 (CHEK1) of over 20 µM and an IC50 (IKKB) of over 20 µM. For the same molecule, the IC50 (EGFR) was over 20 µM, the IC50 (NLK) was over 20 µM and the IC50 (RPS6KB1) was over 20 µM. The IC50 (PRKAA1) was over 20 µM, the IC50 (RET) was over 20 µM and the “selectivity against a panel of more than 50 kinases” value [3] was over 475 fold. For the same molecule, the IC50 (JNK1) was over 20 µM.
